Where a name gives a salt, the structure may show the parent alone.
Assays:
NaV1.6 = NaV1.6 (Homo sapiens (Human), UniProt Q9UQD0); experiment: Sodium Influx Assay (Flux), NaV1.6; format: cell-based; settings: Trex HEK293 cells, ANG2 dye, inactivated state;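 also: Tetracycline-induced cells, compounds applied for one hour at room temperature with modulators holding channels open, IC50 from percent inhibition of sodium influx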
NaV1.1 = NaV1.1 (Homo sapiens (Human), UniProt P35498); experiment: Sodium Influx Assay (Flux), NaV1.1; format: cell-based; settings: Trex HEK293 cells, ANG2 dye, inactivated state;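 also: channels co-expressed with human β1 subunit and held open by modulators, cells exposed to compounds for one hour at room temperature, IC50 from percent inhibition of influx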
NaV1.5 = NaV1.5 (Homo sapiens (Human), UniProt Q14524); experiment: Sodium Influx Assay (Flux), NaV1.5; settings: read-out: Flux NaV1.5 IC50; Trex HEK293 cells, ANG2 dye, inactivated state
Sequence of NaV1.5 (Q14524 other isoform, or with tags, fused parts or gaps): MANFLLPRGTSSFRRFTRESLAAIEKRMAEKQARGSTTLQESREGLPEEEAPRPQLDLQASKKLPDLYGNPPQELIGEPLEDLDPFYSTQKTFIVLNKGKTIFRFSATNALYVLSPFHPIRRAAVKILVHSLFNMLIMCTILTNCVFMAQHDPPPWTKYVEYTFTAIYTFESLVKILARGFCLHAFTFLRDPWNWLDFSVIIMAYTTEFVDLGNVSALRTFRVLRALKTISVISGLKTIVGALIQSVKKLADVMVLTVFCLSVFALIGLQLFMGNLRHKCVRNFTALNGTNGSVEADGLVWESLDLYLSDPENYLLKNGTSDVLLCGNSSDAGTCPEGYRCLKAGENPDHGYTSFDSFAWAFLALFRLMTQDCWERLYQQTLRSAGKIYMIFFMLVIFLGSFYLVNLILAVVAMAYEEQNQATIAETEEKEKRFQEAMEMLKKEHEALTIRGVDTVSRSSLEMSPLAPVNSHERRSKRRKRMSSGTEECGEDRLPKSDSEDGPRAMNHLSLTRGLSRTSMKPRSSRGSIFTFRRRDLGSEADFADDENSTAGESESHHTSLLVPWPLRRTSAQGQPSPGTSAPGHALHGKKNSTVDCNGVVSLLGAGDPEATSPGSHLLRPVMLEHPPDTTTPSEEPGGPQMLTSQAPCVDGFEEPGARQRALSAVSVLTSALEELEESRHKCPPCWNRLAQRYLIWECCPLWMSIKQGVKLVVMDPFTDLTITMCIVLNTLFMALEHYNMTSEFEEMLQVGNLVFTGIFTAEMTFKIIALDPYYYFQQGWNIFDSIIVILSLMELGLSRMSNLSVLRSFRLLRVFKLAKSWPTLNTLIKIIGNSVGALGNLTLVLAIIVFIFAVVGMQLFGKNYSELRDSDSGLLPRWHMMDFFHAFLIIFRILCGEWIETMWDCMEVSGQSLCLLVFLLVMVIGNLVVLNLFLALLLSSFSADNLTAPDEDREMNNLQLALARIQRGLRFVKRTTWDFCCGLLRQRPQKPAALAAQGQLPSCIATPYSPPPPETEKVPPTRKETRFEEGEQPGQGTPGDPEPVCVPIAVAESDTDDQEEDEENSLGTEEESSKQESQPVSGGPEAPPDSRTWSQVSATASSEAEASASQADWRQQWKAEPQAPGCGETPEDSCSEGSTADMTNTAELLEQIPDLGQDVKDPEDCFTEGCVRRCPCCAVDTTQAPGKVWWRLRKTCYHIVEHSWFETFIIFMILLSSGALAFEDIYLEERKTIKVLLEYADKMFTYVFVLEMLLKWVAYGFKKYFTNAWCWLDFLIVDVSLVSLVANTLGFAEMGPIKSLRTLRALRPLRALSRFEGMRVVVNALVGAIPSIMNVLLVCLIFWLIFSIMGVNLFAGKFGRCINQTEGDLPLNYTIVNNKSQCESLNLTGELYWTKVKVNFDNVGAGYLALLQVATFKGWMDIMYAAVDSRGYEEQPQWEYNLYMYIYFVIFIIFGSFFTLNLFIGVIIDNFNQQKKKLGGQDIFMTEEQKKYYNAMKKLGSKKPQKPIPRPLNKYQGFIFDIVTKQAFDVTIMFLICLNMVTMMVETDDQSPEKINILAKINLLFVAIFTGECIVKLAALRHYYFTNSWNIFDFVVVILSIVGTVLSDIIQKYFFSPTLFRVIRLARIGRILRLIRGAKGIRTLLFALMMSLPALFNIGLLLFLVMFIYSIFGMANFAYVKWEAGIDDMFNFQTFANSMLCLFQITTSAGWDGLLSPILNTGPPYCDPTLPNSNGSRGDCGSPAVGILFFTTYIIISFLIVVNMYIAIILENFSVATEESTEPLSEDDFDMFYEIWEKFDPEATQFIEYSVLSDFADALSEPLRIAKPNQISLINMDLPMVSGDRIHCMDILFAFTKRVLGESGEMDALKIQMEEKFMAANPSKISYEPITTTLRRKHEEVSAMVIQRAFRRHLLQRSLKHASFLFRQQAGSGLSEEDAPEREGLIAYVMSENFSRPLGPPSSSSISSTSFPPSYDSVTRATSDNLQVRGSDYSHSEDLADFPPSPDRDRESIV

Structure (SMILES) | IC50 (NaV1.6) [µM] | IC50 (NaV1.1) [µM] | IC50 (NaV1.5) [µM]
C[C@H](c1cccc(F)c1CNc1cc(F)c(S(=O)(=O)Nc2cscn2)c(F)c1)N1CCC1 [Example 279, (R)-4-((2-(1-(azetidin-1-yl)ethyl)-6-fluorobenzyl)amino)-2,6-difluoro-N-(thiazol-4-yl)benzenesulfonamide formate] | 0.163 | 11.2 | 30
COCc1ccc(F)c([C@H](C)Nc2cc(F)c(S(=O)(=O)Nc3cscn3)cc2Cl)c1 [Example 280, (S)-5-chloro-2-fluoro-4-((1-(2-fluoro-5-(methoxymethyl)phenyl)ethyl)amino)-N-(thiazol-4-yl)benzenesulfonamide] | 1.39 | 8.73 | 23.9
C[C@H](Nc1cc(F)c(S(=O)(=O)Nc2cscn2)cc1Cl)c1cc(OC(F)F)ccc1F [Example 281, (S)-5-chloro-4-((1-(5-(difluoromethoxy)-2-fluorophenyl)ethyl)amino)-2-fluoro-N-(thiazol-4-yl)benzenesulfonamide] | 1.07 | 7.06 | 11
O=S(=O)(Nc1cscn1)c1cc(Cl)c(NCc2c(F)ccc(F)c2CN2CC3(CCOCC3)C2)cc1F [Example 282, 4-((2-((7-oxa-2-azaspiro[3.5]nonan-2-yl)methyl)-3,6-difluorobenzyl)amino)-5-chloro-2-fluoro-N-(thiazol-4-yl)benzenesulfonamide 2,2,2-trifluoroacetate] | 0.409 | 9.78 | 6.58
CN(Cc1c(F)ccc(F)c1CN1CCC1)c1cc(F)c(S(=O)(=O)Nc2cscn2)c(F)c1 [Example 284, 4-((2-(azetidin-1-ylmethyl)-3,6-difluorobenzyl)(methyl)amino)-2,6-difluoro-N-(thiazol-4-yl)benzenesulfonamide 2,2,2-trifluoroacetate] | 1.37 | 30 | 30
Cc1cccc(CN2CCC2)c1CNc1cc(F)c(S(=O)(=O)Nc2cscn2)c(F)c1 [Example 285, 4-((2-(Azetidin-1-ylmethyl)-6-methylbenzyl)amino)-2,6-difluoro-N-(thiazol-4-yl)benzenesulfonamide formate] | 0.625 | 5.89 | 26.6
C[C@H](Nc1cc(F)c(S(=O)(=O)Nc2cscn2)cc1Cl)c1cc(F)c(F)cc1F [Example 286, (S)-5-chloro-2-fluoro-N-(thiazol-4-yl)-4-((1-(2,4,5-trifluorophenyl)ethyl)amino)benzenesulfonamide] | 3.38 | 6.84 | 8.78
O=S(=O)(Nc1cscn1)c1c(F)cc(N[C@@H]2C[C@H](N3CCC3)c3ccccc32)cc1F [Example 289, 4-(((1R,3S)-3-(azetidin-1-yl)-2,3-dihydro-1H-inden-1-yl)amino)-2,6-difluoro-N-(thiazol-4-yl)benzenesulfonamide] | 0.556 | 4.27 | 30
O=S(=O)(Nc1cscn1)c1cc(Cl)c(NCc2c(Cl)cccc2CN2CC3(CNC3)C2)cc1F [Example 291, 4-((2-((2,6-diazaspiro[3.3]heptan-2-yl)methyl)-6-chlorobenzyl)amino)-5-chloro-2-fluoro-N-(thiazol-4-yl)benzenesulfonamide 2,2,2-trifluoroacetate] | 0.368 | 14 | 30
CN1CC2(C1)CN(Cc1cccc(Cl)c1CNc1cc(F)c(S(=O)(=O)Nc3cscn3)cc1Cl)C2 [Example 292, 5-chloro-4-((2-chloro-6-((6-methyl-2,6-diazaspiro[3.3]heptan-2-yl)methyl)benzyl)amino)-2-fluoro-N-(thiazol-4-yl)benzenesulfonamide 2,2,2-trifluoroacetate] | 0.624 | 2.72 | 8.4
O=S(=O)(Nc1ccon1)c1ccc(NCc2c(F)cccc2CN2CCCC2)c(F)c1F [Example 294, 2,3-difluoro-4-((2-fluoro-6-(pyrrolidin-1-ylmethyl)benzyl)amino)-N-(isoxazol-3-yl)benzenesulfonamide 2,2,2-trifluoroacetate] | 0.688 | 30 | 30

Reference: patent US11174268B2, “Benzenesulfonamide compouds and their use as therapeutic agents” (Xenon Pharmaceuticals Inc., priority 2016, dated 2021)
